Measured values taken from the supplement of paper PMC11061612.

Tests used:
Assay in all cases: combination Emax (second highest fraction inhibited in the dose matrix, 72 h); higher = more inhibition; extreme values may be limits of the assay
[1] = test system: HC-1 (Other Blood Carcinomas)
Summary of the method: (§1)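 After 24 hours at 37°C and 5% CO2 in 1536-well plates, cells in DMEM/F12 or RPMI plus 10% FBS received two-drug dose matrices for 72 hours. Viability came from CellTiter-Glo 2.0 luminescence and was scaled as inhibition, anchored at 0 by vehicle wells and at 1 by blank wells. Combination Emax is taken as the second-highest inhibition in the matrix, and Bliss excess as the observed combination effect less EA + EB − EA·EB, with EA and EB the single-agent effects.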

EW-3 (Ewing's Sarcoma) = test system: EW-3 (Ewing's Sarcoma)
Summary of the method: as §1

[2] = test system: TGBC11TKB (Gastric Carcinoma)
Summary of the method: as §1

IMR-5 (Neuroblastoma) = test system: IMR-5 (Neuroblastoma)
Summary of the method: as §1

[3] = test system: KLE (Endometrial Carcinoma)
Summary of the method: as §1

RPMI-7951 (Melanoma) = test system: RPMI-7951 (Melanoma)
Summary of the method: as §1

NB7 (Neuroblastoma) = test system: NB7 (Neuroblastoma)
Summary of the method: as §1

EW-13 (Ewing's Sarcoma) = test system: EW-13 (Ewing's Sarcoma)
Summary of the method: as §1

[4] = test system: SNU-C1 (Colorectal Carcinoma)
Summary of the method: as §1

[5] = test system: H-EMC-SS (Chondrosarcoma)
Summary of the method: as §1

BT-20 (Breast Carcinoma) = test system: BT-20 (Breast Carcinoma)
Summary of the method: as §1

EW-18 (Ewing's Sarcoma) = test system: EW-18 (Ewing's Sarcoma)
Summary of the method: as §1

U-87-MG (Glioblastoma) = test system: U-87-MG (Glioblastoma)
Summary of the method: as §1

[6] = test system: HSC-2 (Oral Cavity Carcinoma)
Summary of the method: as §1

[7] = test system: NCI-N87 (Gastric Carcinoma)
Summary of the method: as §1

[8] = test system: NCI-H1573 (Lung Adenocarcinoma)
Summary of the method: as §1

A704 (Kidney Carcinoma) = test system: A704 (Kidney Carcinoma)
Summary of the method: as §1

[9] = test system: HuP-T3 (Pancreatic Carcinoma)
Summary of the method: as §1

[10] = test system: EBC-1 (Squamous Cell Lung Carcinoma)
Summary of the method: as §1

[11] = test system: MFE-319 (Endometrial Carcinoma)
Summary of the method: as §1

Row | Compound | combination Emax [1] | combination Emax (EW-3 (Ewing's Sarcoma)) | combination Emax [2] | combination Emax (IMR-5 (Neuroblastoma)) | combination Emax [3] | combination Emax (RPMI-7951 (Melanoma)) | combination Emax (NB7 (Neuroblastoma)) | combination Emax (EW-13 (Ewing's Sarcoma)) | combination Emax [4] | combination Emax [5] | combination Emax (BT-20 (Breast Carcinoma)) | combination Emax (EW-18 (Ewing's Sarcoma)) | combination Emax (U-87-MG (Glioblastoma)) | combination Emax [6] | combination Emax [7] | combination Emax [8] | combination Emax (A704 (Kidney Carcinoma)) | combination Emax [9] | combination Emax [10] | combination Emax [11]
1 | CN(CCO)CC[C@H](CSc1ccccc1)Nc1ccc(S(=O)(=O)NC(=O)c2ccc(N3CCC([C@@H](O)c4ccccc4-c4ccc(Cl)cc4)CC3)cc2)cc1S(=O)(=O)C(F)(F)F [AZD4320] + C1CN(CCC1(C(=O)N[C@@H](CCO)C2=CC=C(C=C2)Cl)N)C3=NC=NC4=C3C=CN4 [Capivasertib] (first compound max 1 µM, 7x7, partner max 3 µM) | 0.616 | 0.918 | 0.182 | 0.788 | 0.206 | 0.54 | 0.0214 | 0.677 | 0.775 | 0.753 | 0.84 | 0.875 | 0.311 | 0.362 | 0.571 | 0.575 | 0.392 | 0.118 | 0.935 | –
2 | CN(CCO)CC[C@H](CSc1ccccc1)Nc1ccc(S(=O)(=O)NC(=O)c2ccc(N3CCC([C@@H](O)c4ccccc4-c4ccc(Cl)cc4)CC3)cc2)cc1S(=O)(=O)C(F)(F)F [AZD4320] + C=CCn1c(=O)c2cnc(Nc3ccc(N4CCN(C)CC4)cc3)nc2n1-c1cccc(C(C)(C)O)n1 [AZD1775] (first compound max 1 µM, partner max 1 µM) | 1 | 0.962 | 0.964 | 0.983 | 0.573 | 0.879 | 0.689 | 0.665 | 0.613 | 0.402 | 0.787 | 0.888 | 0.187 | 0.639 | 0.888 | 0.291 | 0.781 | 0.412 | 0.975 | 0.944
3 | CN(CCO)CC[C@H](CSc1ccccc1)Nc1ccc(S(=O)(=O)NC(=O)c2ccc(N3CCC([C@@H](O)c4ccccc4-c4ccc(Cl)cc4)CC3)cc2)cc1S(=O)(=O)C(F)(F)F [AZD4320] + CCN(CCO)CCCOc1ccc2c(Nc3cc(CC(=O)Nc4cccc(F)c4)[nH]n3)ncnc2c1 [AZD2811] (first compound max 1 µM, 7x7, partner max 1 µM) | 0.969 | 0.949 | 0.439 | 1 | 0.297 | 0.647 | 0.267 | 0.754 | 0.531 | 0.521 | 0.653 | 0.888 | 0.253 | 0.827 | 0.571 | 0.27 | 0.563 | 0.128 | 0.931 | 0.647
4 | CN(CCO)CC[C@H](CSc1ccccc1)Nc1ccc(S(=O)(=O)NC(=O)c2ccc(N3CCC([C@@H](O)c4ccccc4-c4ccc(Cl)cc4)CC3)cc2)cc1S(=O)(=O)C(F)(F)F [AZD4320] + C[C@@H]1COCCN1C2=NC(=NC(=C2)C3(CC3)[S@](=N)(=O)C)C4=C5C=CNC5=NC=C4 [AZD6738] (first compound max 1 µM, 7x7, partner max 10 µM) | 0.958 | 0.971 | 0.935 | 1 | 0.608 | 0.951 | 0.691 | 0.887 | 0.658 | 0.692 | 0.765 | 0.897 | 0.501 | 0.925 | 0.845 | 0.634 | 0.809 | 0.706 | 0.935 | 0.928
5 | CN(CCO)CC[C@H](CSc1ccccc1)Nc1ccc(S(=O)(=O)NC(=O)c2ccc(N3CCC([C@@H](O)c4ccccc4-c4ccc(Cl)cc4)CC3)cc2)cc1S(=O)(=O)C(F)(F)F [AZD4320] + C[C@@H](Nc1cc(F)cc(F)c1)c1cc(C(=O)N(C)C)cc2c(=O)cc(N3CCOCC3)oc12 [AZD8186] (first compound max 1 µM, 7x7, partner max 3 µM) | 0.965 | 0.898 | 0.338 | 1 | 0.61 | 0.701 | 0.49 | 0.911 | 0.484 | 0.727 | 0.614 | 0.914 | 0.527 | 0.897 | 0.638 | 0.289 | 0.57 | 0.332 | 0.972 | 0.427
6 | CN(CCO)CC[C@H](CSc1ccccc1)Nc1ccc(S(=O)(=O)NC(=O)c2ccc(N3CCC([C@@H](O)c4ccccc4-c4ccc(Cl)cc4)CC3)cc2)cc1S(=O)(=O)C(F)(F)F [AZD4320] + Cc1cc2ncnn2cc1Nc1ncc2c(n1)n(C1CCOCC1)c(=O)n2C [AZD7648] (first compound max 1 µM, 7x7, partner max 10 µM) | 0.58 | 0.958 | 0.237 | 0.738 | 0.337 | 0.516 | 0.0542 | 0.672 | 0.633 | 0.524 | 0.606 | 0.883 | 0.311 | 0.461 | 0.544 | 0.135 | 0.563 | 0.153 | 0.947 | 0.264
7 | CN(CCO)CC[C@H](CSc1ccccc1)Nc1ccc(S(=O)(=O)NC(=O)c2ccc(N3CCC([C@@H](O)c4ccccc4-c4ccc(Cl)cc4)CC3)cc2)cc1S(=O)(=O)C(F)(F)F [AZD4320] + Cn1cnc2c(F)c(Nc3ccc(Br)cc3Cl)c(C(=O)NOCCO)cc21 [Selumetinib] (first compound max 1 µM, 7x7, partner max 3 µM) | 0.972 | 0.906 | 0.469 | 0.994 | 0.423 | 0.526 | 0.507 | 0.933 | 0.944 | 0.691 | 0.746 | 0.881 | 0.278 | 0.768 | 0.604 | 0.4 | 0.642 | 0.471 | 0.991 | 0.522
8 | COc1nnc2ccc(N3CCC(c4ccc(OCCN5CCN(C)C(=O)[C@H]5C)cc4)CC3)nn12 [AZD5153] + C=CCn1c(=O)c2cnc(Nc3ccc(N4CCN(C)CC4)cc3)nc2n1-c1cccc(C(C)(C)O)n1 [AZD1775] (first compound max 1 µM, partner max 1 µM) | 0.948 | 0.622 | 0.831 | 0.973 | 0.679 | 0.802 | 0.587 | 0.407 | 0.546 | 0.23 | 0.471 | 0.687 | 0.53 | 0.679 | 0.717 | 0.637 | 0.652 | 0.584 | 0.802 | 0.741
9 | COc1nnc2ccc(N3CCC(c4ccc(OCCN5CCN(C)C(=O)[C@H]5C)cc4)CC3)nn12 [AZD5153] + CN(CC[C@H](CSC1=CC=CC=C1)NC2=C(C=C(C=C2)S(=O)(=O)NC(=O)C3=CC=C(C=C3)N4CCC(CC4)[C@H](C5=CC=CC=C5C6=CC=C(C=C6)Cl)O)S(=O)(=O)C(F)(F)F)CCO [AZD4320] (first compound max 1 µM, 7x7, partner max 1 µM) | 0.695 | – | – | 0.984 | 0.792 | 0.647 | – | 0.818 | – | – | 0.293 | 0.929 | 0.625 | – | – | 0.356 | 0.768 | 0.512 | 1 | 0.476
10 | CC(=O)c1c(C)c2cnc(Nc3ccc(N4CCNCC4)cn3)nc2n(C2CCCC2)c1=O [Palbociclib] + CN(CC[C@H](CSC1=CC=CC=C1)NC2=C(C=C(C=C2)S(=O)(=O)NC(=O)C3=CC=C(C=C3)N4CCC(CC4)[C@H](C5=CC=CC=C5C6=CC=C(C=C6)Cl)O)S(=O)(=O)C(F)(F)F)CCO [AZD4320] (first compound max 10 µM, 7x7, partner max 1 µM) | 0.831 | – | – | 0.949 | 0.355 | 0.678 | – | 0.649 | – | – | 0.546 | 0.903 | 0.312 | – | – | 0.306 | 0.935 | 0.274 | 0.875 | 0.31
11 | C[C@@H](c1ccc2nccn2c1)n1nnc2ncc(-c3cnn(C)c3)nc21 [Savolitinib] + CN(CC[C@H](CSC1=CC=CC=C1)NC2=C(C=C(C=C2)S(=O)(=O)NC(=O)C3=CC=C(C=C3)N4CCC(CC4)[C@H](C5=CC=CC=C5C6=CC=C(C=C6)Cl)O)S(=O)(=O)C(F)(F)F)CCO [AZD4320] (first compound max 1 µM, 7x7, partner max 1 µM) | 0.546 | – | – | 0.481 | 0.216 | 0.271 | – | 0.639 | – | – | 0.418 | 0.891 | 0.259 | – | – | 0.218 | 0.449 | 0.203 | 1 | 0.191
